In patent US9296778B2, “3′,5′-cyclic phosphate prodrugs for HCV infection” (Idenix Pharmaceuticals, Inc., priority 2012, dated 2016):
Read-outs that look alike come from different tables or passages of the source.

Legend:
Zluc cells = experiment: cytotoxicity evaluation (CellTiter-Blue Cell Viability Assay); settings: read-out: HCV Replicon CC50; Zluc cells, CellTiter-Blue
mouse hepatocytes = experiment: Release of active metabolite in mouse hepatocytes; format: in vitro ADME; settings: 10 μM compound; for MsH Cmax: mouse hepatocytes; for MsH AUC: mouse hepatocytes, 1, 4, 8, 12 and 24 hours
Procedure: (§1) Plates of fresh human and mouse hepatocytes were obtained on ice. The medium was removed and replaced with hepatocyte culture medium (William's E supplemented with penicillin-streptomycin, 1% L-glutamine, 1% insulin-transferrin-selenium and 0.1 μM Dexamethasone (Invitrogen) or with Invitro GRO HI medium complemented with Torpedo antibiotics (Celsis)). Cells were left overnight in an incubator at 37° C. to acclimatize to culture and the medium.
(§2) Hepatocyte incubations were conducted at a final volume of 0.5 mL hepatocyte culture medium/well (0.8 million cells/well for human and 0.5 million cells/well for mouse; 12 well plate no overlay, collagen coat). Culture medium from overnight incubation of cells was removed and replaced with fresh medium, pre-warmed to 37° C., containing 10 μM of test compound from a stock solution in DMSO (final DMSO concentration was 0.1%). At each specific time point, incubation medium was removed and cell monolayers were carefully washed two times with ice-cold PBS. Following the last wash, all PBS was carefully removed and 1.0 mL of extraction solution (ice-cold 70% methanol/30% water) added. Cells were scraped off and suspended in the extraction solution, transferred to 2 mL polypropylene microfuge tubes and intracellular contents extracted overnight at −20° C.
(§3) After the overnight treatment the cellular extracts were prepared by centrifugation at 16,000×g for 10 min to remove cellular debris. The remaining sample was then dried using a refrigerated centrivap concentrator. Dry extracts were reconstituted in 1000 μL of HPLC-grade water and centrifuged at 16,000×g for 10 min. Aliquots (100 μL each) of the supernatant were transferred into a 96 well plate and internal standard (4 ng/mL final concentration) was added as the internal standard (IS) for LC-MS/MS analysis.
(§4) The incubation time points were 6, 24 and 48 hours for human hepatocytes and 1, 4, 8, 12 and 24 hours for mouse hepatocytes.

Stability in mouse blood = format: in vitro ADME; settings: on ice, percent unchanged test compound
Procedure: (§5) Stability of compounds were determined in fresh human whole blood with K2EDTA as the anticoagulant (stored refrigerated at 2-8° C. and used within 7 days of receipt). The experiment was conducted with three replicates for each time point. Whole blood, pre-incubated at 37° C. for 10-15 minutes, was fortified with a solution of test compound for a final concentration of 0.5 μM and mixed for 30 sec. At intervals (0, 0.5, 1 and 2 hr), three 50 μL aliquots were combined with 200 μL (each) of an ice-cold solution of the internal standard (carbutamide 500 ng/mL in acetonitrile). The samples were vortexed for 30 sec and then centrifuged at 16,100 g for 5 min. The supernatant was analyzed by LC-MS/MS. The MS peak area ratio of the test compounds versus the internal standard was calculated and percent unchanged test compound was calculated for each time point using this ratio.
The stability in mouse blood was determined on ice at 0, 0.5 and 1 hr as herein.

[1] = Stability in simulated intestinal fluid; format: in vitro ADME; settings: 100 μM, 2 hours at 37° C., percent of the peak area at time zero
Procedure: (§6) Simulated gastric and intestinal fluids containing pepsin and pancreatin respectively were prepared according to the U.S. Pharmacopoeia USP291 procedure (www.pharmacopeia.cn/v29240/usp29nf24s0_ris1s126.html). Compounds (final concentration 100 μM) were incubated in duplicate in the appropriate fluid for 2 hours at 37° C. The samples were quenched with 200 μl cold acetonitrile, vortexed for 30 seconds and then centrifuged at 16,100 g for 10 min. The supernatants were analyzed by HPLC on a C-18 column with UV detection at 252 nm. The time 0 samples were prepared by adding SGF or SIF fluid to the quenching solvent followed by the test compound. Stability of the compounds was determined by peak area of the test compounds after incubation and calculated as percent of the peak area observed at time zero.

[2] = Stability in fresh human whole blood; format: in vitro ADME; settings: 0.5 μM, percent unchanged test compound
Procedure: as §5

fresh human hepatocytes = experiment: Release of active metabolite in fresh human hepatocytes; format: in vitro ADME; settings: 10 μM compound; for FHH TP Cmax: fresh human hepatocytes; for FHH TP AUC: fresh human hepatocytes, 6, 24 and 48 hours
Procedure: as §1, §2, §3, §4

HCV genotype 1b replicon = experiment: HCV Replicon Assay; format: cell-based; settings: Zluc cells (Huh-7-derived, HCV genotype 1b replicon, luciferase reporter), 72 hours, read-out: HCV Replicon EC50
Procedure: Huh-7-derived cell line (Zluc) that harbors an HCV genotype 1b replicon and a luciferase reporter gene was grown in Dulbecco's Modified Eagle Medium (DMEM) supplemented with 10% fetal bovine serum, 2 mM GlutaMAX, 1% MEM nonessential amino acids, 100 IU/mL penicillin, 100 μg/mL streptomycin, and 0.5 mg/mL Geneticin® (G418). For dose response testing the cells were seeded in 96-well plates at 7.5×10^3 cells per well in a volume of 50 μL, and incubated at 37° C./5% CO2. Drug solutions were made up freshly in Huh-7 media as 2× stocks. Ten additional 5-fold dilutions were prepared from these stocks in DMEM without G418. At least three hours after Zluc cells were seeded, drug treatment was initiated by adding 50 μL of drug dilutions to the plates in duplicate. Final concentrations of drug ranged from 100 μM to […]. Cells were then incubated at 37° C./5% CO2. Alternatively, compounds were tested at two concentrations (1 μM and 10 μM). […] For this, media was removed from the plates via gentle tapping. Fifty microliters of ONE-glo luciferase assay reagent was added to each well. The plates were shaken gently for 3 min at room temperature and luminescence was measured on a Victor^3 V 1420 multilabel counter (Perkin Elmer) with a 1 second read time using a 700 nm cut-off filter. The EC50 values were calculated from dose response curves from the resulting best-fit equations determined by Microsoft Excel and XLfit 4.1 software. When screening at two fixed concentrations, the results were expressed as % inhibition at 1 μM and 10 μM.

[3] = Liver pharmacokinetics following a single oral dose in CD-1 mice; format: in vivo; settings: single oral dose 25 mg/kg in PEG 200, CD-1 male mice; given at 1 μmol/kg; 25 mg/kg
Procedure: (§7) A single oral dose of test compound at 25 mg/kg in PEG 200 (dose volume 5 mL/kg) was administered to nine CD-1 male mice. Five untreated animals were used for the collection of control plasma and liver. Terminal plasma and liver samples were collected from three animals per time point at 4, 12 and 24 hours post dose. Liver specimens were collected from all animals immediately after the incision. Freezing forceps stored in liquid nitrogen were used to freeze the liver before excision.
Liver samples were analyzed for the active species 2′-methylguanosine triphosphate (2′-MeGTP) by LC-MS/MS. 2′-MeGTP levels were assayed by homogenizing (on ice) a known weight of mouse liver with 4× volume of 0.95 M trichloroacetic acid (TCA). Internal standard solution was added to the homogenate followed by neutralization with 20% ammonium hydroxide solution and addition of 500 μL 1% formic acid. The tissue samples were extracted by weak anion exchange solid phase extraction (SPE). Post extraction, the eluates were evaporated under nitrogen, followed by reconstitution before injection onto the LC-MS/MS system. The samples were chromatographed on a Luna NH2 column using a gradient system of ammonium acetate (1 mM to 20 mM and pH 8.0 to pH 10.0) in water and acetonitrile (70:30). The analyte was detected and quantified by tandem mass spectrometry in positive ion mode on an API4000 equipped with a Turbo Ionspray® interface. The calibration range was 10 to 10000 pmol/mL in mouse liver homogenate (50 to 50000 pmol/g of mouse liver).

[4] = Plasma pharmacokinetics following a single oral dose in CD-1 mice; format: in vivo; settings: single oral dose 25 mg/kg in PEG 200, CD-1 male mice; given at 1 μmol/kg; 25 mg/kg
Procedure: as §7
Plasma samples were analyzed for 2′-methylguanosine (2′-MeG) by LC-MS/MS. The internal standard (IS) was 2′-MeG-D3. For protein precipitation and extraction, each plasma sample (50 μL) was treated with 500 μL of 0.2% formic acid in acetonitrile and 20 μL of the internal standard working solution. After vortexing and centrifugation, 500 μL of the sample extracts were transferred to a new plate, dried under N2 at ˜28° C. and reconstituted with 75 μL of 0.2% FA in water. The extracts were chromatographed on an Aquasil C18 column using a gradient system of 0.2% formic acid in water and acetonitrile. The analytes were detected and quantified by tandem mass spectrometry in positive ion mode on an MDS Sciex API5000 equipped with a Turbo Ionspray® interface. The calibration range was 0.500 (LLOQ) to 200 ng/mL in mouse plasma.

[5] = Stability in simulated gastric fluid; format: in vitro ADME; settings: 100 μM, 2 hours at 37° C., percent of the peak area at time zero
Procedure: as §6

in vitro = settings: human, HCV Replicon CC50, Zluc cells, CellTiter-Blue

Structure (SMILES) | CC50 (Zluc cells) [nM] | MsH Cmax (mouse hepatocytes) [pmol/mill cells] | MsH AUC (mouse hepatocytes) [pmol · hr/mill cells] | Stability WB_Mouse (ice; 1 hr) (Stability in mouse blood) [%] | Stability SIF [1] [%] | Stability WB_Human (37° C.; 2 hr) [2] [%] | FHH TP Cmax (fresh human hepatocytes) | FHH TP AUC (fresh human hepatocytes) | EC50 (HCV genotype 1b replicon) [nM] | Ms Liver 2′-MeGTP AUC [3] [pmol · hr/g at 1 μmol/kg] | Ms Plasma 2′-MeG AUC [4] [pmol · hr/mL at 1 μmol/kg] | Ms Plasma 2′-MeG Cmax [4] [pmol/mL at 1 μmol/kg] | Stability SGF [5] [%] | CC50 (in vitro) [nM] | EC50 (HCV genotype 1b replicon; Hepatitis C virus, 72 h) [nM]
CCOc1nc(N)nc2c1ncn2[C@@H]1O[C@@H]2COP(=O)(OCCSC(=O)C(C)(C)CO)O[C@H]2[C@@]1(C)O (single isomer, unassigned) [Compound 4 Diastereomer 2] | < 50000 | 386 | 13328 | 105 | 77 | 59 | 681 pmol/mill cells | 24086 pmol · hr/mill cells | < 250 | 1100 | 24 | 1.7 |  |  | 
CCOc1nc(N)nc2c1ncn2[C@@H]1O[C@@H]2COP(=O)(OCCSC(=O)C(C)(C)CO)O[C@H]2[C@@]1(C)F (single isomer, unassigned) [Compound 5 Diastereomer 2] | > 50000 | 302 | 8713 | 93 | 77 | 46 | 448 pmol/mill cells | 9694 pmol · hr/mill cells | < 250 | 2600 | 220 | 23 |  |  | 
CCOc1nc(N)nc2c1ncn2[C@@H]1O[C@@H]2COP(=O)(OCCSSC(C)(C)C)O[C@H]2[C@@]1(C)F (single isomer, unassigned) [Compound 24 Diastereomer 2] | < 50000 |  |  |  | 47 | 73 | 105 pmol/mill cells | 3031 pmol · hr/mill cells | < 250 |  |  |  | 30 |  | 
CCOc1nc(N)nc2c1ncn2[C@@H]1O[C@@H]2COP(=O)(OCCCC(=O)OC(C)C)O[C@H]2[C@@]1(C)O (single isomer, unassigned) [Compound 1 Diastereomer 2] | < 50000 | 330 | 8363 | 1 | 83 | 87 | 278 pmol/mill cells | 10125 pmol · hr/mill cells | < 250 | 7400 | 68 | 8.6 |  |  | 
CCOc1nc(N)nc2c1ncn2[C@@H]1O[C@@H]2COP(=O)(OC[C@H](C)NC(=O)OC)O[C@H]2[C@@]1(C)F (single isomer, unassigned; diastereomer 2) [Compound 9 Diastereomer 2] | > 50000 |  |  |  | 105 | 85 | BLD^a | BLD^a | < 250 |  |  |  | 85 |  | 
CCOc1nc(N)nc2c1ncn2[C@@H]1O[C@@H]2COP(=O)(OCCCC(=O)OC(C)C)O[C@H]2[C@@]1(C)O (single isomer, unassigned) [Compound 1 Diastereomer 1] |  |  |  | 79 | 105 | 73 | 85 pmol/mill cells | 3425 pmol · hr/mill cells |  | 560 | 9 | 0.56 |  | > 50000 | 250 to 1000
CCOc1nc(N)nc2c1ncn2[C@@H]1O[C@@H]2COP(=O)(OCCSC(=O)C(C)(C)CO)O[C@H]2[C@@]1(C)O (single isomer, unassigned) [Compound 4 Diastereomer 1] |  | 468 | 15078 |  | 105 | 82 | 120 pmol/mill cells | 4110 pmol · hr/mill cells |  | 480 | 6.7 | 0.5 |  | < 50000 | < 250
